Measured values taken from patent US5892026A, “High Trehalose content syrup” (Kabushiki Kaisha Hayashibara Seibutsu Kagaku Kenkyujo, priority 1995, dated 1999).
In brackets after ≈: the same amount, converted by molar mass. Like-named read-outs stand apart in the source and are kept apart here.

Assay: Water solubility of trehalose at ambient temperature (Experiment 1)
Assay type: physicochemical
Details: for solubility thermodynamic at 24 h: water
Procedure: The water solubility of trehalose at ambient temperature was studied by placing into a glass beaker 10 parts by weight of water and 20 parts by weight of hydrous crystalline trehalose, incubating the mixture under stirring conditions at 10°, 15°, 20°, 25°, 30° or 40° C. for 24 hours in an incubator, filtering the resulting mixture, measuring the trehalose concentration of the filtrate, and determining the water solubility of trehalose in an anhydrous form in 100 g water at each temperature.

**Q.** What does the source list for `OC[C@H]1O[C@H](O[C@H]2O[C@H](CO)[C@@H](O)[C@H](O)[C@H]2O)[C@H](O)[C@@H](O)[C@@H]1O` [Trehalose, α,α-trehalose]?
**A.** water solubility / crystallization of trehalose (in words) (ambient temperature): dissolves in water in a relatively low concentration and readily crystallizes at ambient temperature; solubility thermodynamic at 24 h (10 °C, anhydrous form, read-out: trehalose content (g) dissolved in 100 g water): 553 mg/mL (≈ 1620 mM); solubility thermodynamic at 24 h (15 °C, anhydrous form, read-out: trehalose content (g) dissolved in 100 g water): 618 mg/mL (≈ 1810 mM); solubility thermodynamic at 24 h (20 °C, anhydrous form, read-out: trehalose content (g) dissolved in 100 g water): 689 mg/mL (≈ 2010 mM); solubility thermodynamic at 24 h (25 °C, anhydrous form, read-out: trehalose content (g) dissolved in 100 g water): 773 mg/mL (≈ 2260 mM); solubility thermodynamic at 24 h (30 °C, anhydrous form, read-out: trehalose content (g) dissolved in 100 g water): 866 mg/mL (≈ 2530 mM); solubility thermodynamic at 24 h (40 °C, anhydrous form, read-out: trehalose content (g) dissolved in 100 g water): 1090 mg/mL (≈ 3190 mM); solubility thermodynamic at 24 h (saturated in water, 10 °C, read-out: trehalose concentration (w/w %)): 356 mg/mL (≈ 1040 mM); solubility thermodynamic at 24 h (saturated in water, 15 °C, read-out: trehalose concentration (w/w %)): 382 mg/mL (≈ 1120 mM); solubility thermodynamic at 24 h (saturated in water, 20 °C, read-out: trehalose concentration (w/w %)): 408 mg/mL (≈ 1190 mM); solubility thermodynamic at 24 h (saturated in water, 25 °C, read-out: trehalose concentration (w/w %)): 436 mg/mL (≈ 1270 mM); solubility thermodynamic at 24 h (saturated in water, 30 °C, read-out: trehalose concentration (w/w %)): 464 mg/mL (≈ 1360 mM); solubility thermodynamic at 24 h (saturated in water, 40 °C, read-out: trehalose concentration (w/w %)): 522 mg/mL (≈ 1520 mM)
